Measured values taken from article PMC9925730, “Controlled sequential in situ self-assembly and disassembly of a fluorogenic cisplatin prodrug for cancer theranostics” (Nature Communications, 2023).
Several values for one entry are separate records, joined by “and”; a condition that tells them apart may be missing. Identical values can stand only once.

Test system: HeLa cells
Test: Depletion of intracellular GSH
Format: cell-based, human
Parameters: key to Intracellular GSH level after treatment (Supplementary Table S2): GSH content in fmol/cell
Conditions: for [GSH] after treatment / [GSH] depletion: HeLa cells, Pt drug 2 h, then fresh medium 24 h; for Intracellular GSH level after treatment (Supplementary Table S2): blank (before treatment) mean 12.88; for GSH-depletion: relative to blank (before treatment)
Description: Supplementary Tables 1-13 Supplementary Table 1. ICP-OES analysis of Pt in HeLa cells. a Pt drugs Pt element per cell Percentage of Pt element (fmol/cell) b taken up by cells (%) c P-CyPt 24.60 ± 3.5 36.9 ± 5.3 […] 1.73 ± 0.2 2.6 ± 0.3 CDDP 0.73 ± 0.09 1.1 ± 0.1 P-CyPt + Na3VO4 0.07 ± 0.01 0.1 ± 0.01 a HeLa cells were untreated or pre-treated with Na3VO4 (10 mM) for 20 min and then incubated with indicated Pt drug (10 μM) for 1 h. Then, the cells were trypsinized, collected, and the cell numbers were counted and digested with trace metal concentrated HNO3 (65~70%) and HCl (36~38%). The amount of Pt element was determined by ICP-OES. b Pt per cell represents the average amount of Pt element in one HeLa cell, which was calculated by dividing the total amount of Pt element in cells by the cell number. c Percentage of Pt taken up by cells was calculated by dividing the total amount of Pt elements in cells by the amount of Pt drugs added. Values denote mean ± s.d. (n = 3 independent experiments). Supplementary Table 2. Comparison of the intracellular GSH in HeLa cells before and after incubation with different Pt drugs. a Pt [GSH] before treatment [GSH] drugs (fmol/cell) [GSH] after treatment (fmol/cell) depletion b CDDP 11.81 ± 1.7 8.3% […] 11.71 ± 1.6 9.1% 12.88 ± 1.5 P-CyPt 8.07 ± 0.8 37.3% a HeLA cells were untreated or treated with different Pt drugs for 2 h. The cells were washed with PBS for three times, and replaced with fresh medium and incubated for another 24 h. After that, the cells were trypsinized, centrifuged and counted. The cell pellets were dispersed, lysed via sonication, and ultracentrifuged to obtain supernatant. The GSH content (nPt) in the supernatant was measured by a reported detection method. The content of GSH per cell ([GSH]) before and after treatment (nB and nA) was calculated according to the formula: […] GSH depletion: The GSH depletion (Δ) was calculated according to the formula: %Δ = (nB - nA)/ nB. Values denote mean ± s.d. (n = 3 independent experiments). 27 page 45: DNA […]-stained with 5x loading buffer in the TAE buffer and the resultant gel visualized by Gel DocTM XR+ (Bio-Rad) system. Depletion of intracellular GSH. HeLa cells (2×10^5 cells/well) in 2 mL DMEM medium were seeded onto 6-well plates and allowed to grow overnight. Then cells were then treated with […], or CDDP (10 μM), respectively. After that, cells were digested with trypsin and washed with PBS for 3 times. Then, cell pellets were dispersed in pre-chilled extraction solution (1 mL, 0.1 M potassium phosphate buffer containing 0.1% Triton, 0.6% sulfosalicylic acid, and 5 mM EDTA, pH 7.4) and sonicated with an US probe on ice for 2 min. To ensure that cells were lysed completely, the solution was further frozen and thawed twice. Finally, the solution was centrifuged at 3000 g at 4 °C for 4 min. The supernatant was taken to measure the GSH content using commercial GSH detection kit, according to a reported procedure (Nat. Protoc. 2006, 1, 3159). MCTS imaging and cytotoxicity. The three-dimensional multicellular spheroids (MCTS) of HeLa were cultured according to the method previously described (Nat. Protoc. 2009, 4, 309) with minor modifications. Briefly, a well of 96-well plates was covered by 50 μL of hot agarose solution (1.5 w/v %) and then cooled to form a layer of agaropectin. HeLa cells were seeded to the agaropectin-coated well at a density of 2×10^3 cells/well, and incubated to grow into spheroids. DMEM medium was replaced with fresh medium every 2 days until the diameter of tumor spheroids grows near 400 μm. Then, the MCSs were incubated with 10 μM P-CyPt or […] for 1 h, washed with PBS for 3 times. Blank DMEM medium was added, and incubated for another 24 h. After that, PI (4 μM) was added and incubated for 1 h. The medium was removed, and the spheroids were gently washed with PBS (×1), which was then carefully transferred to a glass bottom dish. […]

Row | SMILES | [GSH] after treatment [fmol/cell] | [GSH] depletion | Intracellular GSH level after treatment (Supplementary Table S2) (individual samples) | Intracellular GSH level after treatment (Supplementary Table S2) (mean of 3 samples) | GSH-depletion [%]
1 | [NH2][Pt]([NH2])([Cl])[Cl] [CDDP, cisplatin] | 11.81 ± 1.7 | 8.3% and ~ 8.3% | 10.2784 and 11.5154 and 13.6407 | 11.81 | 8.30
2 | CC1(C)C(/C=C/C2=C3Oc4cc(OP(=O)(O)O)c(Cl)cc4C=C3CCC2)=[N+](CCCNC(=O)[C@@H](Cc2ccccc2)NC(=O)[C@@H](Cc2ccccc2)NC(=O)CCC(=O)[O][Pt]([NH2])([NH2])([OH])([Cl])[Cl])c2ccccc21 [P-CyPt] | 8.07 ± 0.8 | 37.3% and ~ 37.3% | 7.3478 and 7.9326 and 8.9304 | 8.07 | 37.30
